The experiment has as its target EGFR (UniProt P00533).

Each structure is given as a SMILES string.

EGFR, sequence (P00533 whole entry, looked up): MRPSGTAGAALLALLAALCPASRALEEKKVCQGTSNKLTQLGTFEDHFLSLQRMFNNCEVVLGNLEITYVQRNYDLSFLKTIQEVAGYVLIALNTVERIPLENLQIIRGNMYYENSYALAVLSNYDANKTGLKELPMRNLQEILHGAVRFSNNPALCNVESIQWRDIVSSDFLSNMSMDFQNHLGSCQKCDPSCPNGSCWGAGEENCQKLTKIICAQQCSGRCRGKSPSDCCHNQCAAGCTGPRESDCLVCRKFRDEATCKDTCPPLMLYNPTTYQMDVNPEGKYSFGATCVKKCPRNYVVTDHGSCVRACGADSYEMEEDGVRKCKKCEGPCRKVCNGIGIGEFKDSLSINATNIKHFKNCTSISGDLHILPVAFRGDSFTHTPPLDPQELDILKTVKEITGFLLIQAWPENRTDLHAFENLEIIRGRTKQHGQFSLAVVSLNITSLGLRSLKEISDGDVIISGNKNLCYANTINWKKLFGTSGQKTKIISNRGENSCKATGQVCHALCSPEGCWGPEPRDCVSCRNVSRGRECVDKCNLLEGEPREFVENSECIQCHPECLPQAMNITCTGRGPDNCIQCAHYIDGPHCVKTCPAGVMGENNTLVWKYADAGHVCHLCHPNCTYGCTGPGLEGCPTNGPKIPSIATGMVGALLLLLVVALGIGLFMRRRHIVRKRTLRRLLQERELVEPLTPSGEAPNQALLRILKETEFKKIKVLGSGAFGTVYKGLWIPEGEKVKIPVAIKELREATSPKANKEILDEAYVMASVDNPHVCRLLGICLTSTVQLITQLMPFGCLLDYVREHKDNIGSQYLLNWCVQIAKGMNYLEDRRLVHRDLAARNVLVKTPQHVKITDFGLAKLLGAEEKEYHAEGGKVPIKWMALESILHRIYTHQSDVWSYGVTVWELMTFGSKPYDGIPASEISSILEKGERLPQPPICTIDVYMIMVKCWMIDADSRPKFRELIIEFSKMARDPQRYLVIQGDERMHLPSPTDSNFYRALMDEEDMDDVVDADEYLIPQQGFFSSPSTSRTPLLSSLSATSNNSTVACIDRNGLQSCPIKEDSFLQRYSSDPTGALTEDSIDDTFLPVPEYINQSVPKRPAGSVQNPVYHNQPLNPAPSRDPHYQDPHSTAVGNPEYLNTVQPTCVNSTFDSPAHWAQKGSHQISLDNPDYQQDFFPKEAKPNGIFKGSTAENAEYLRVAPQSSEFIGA

With `O=C(Nc1ccc(Br)cc1)Nc1ncnc2nn3ccccc3c12`, the IC50 is above 10 µM.
The molecule `O=C(Nc1ccc(C(F)(F)F)cc1)Nc1ncnc2nn3ccccc3c12` gave an IC50 above 10 µM.
In the case of `c1ccc(Cc2nc3ccc(Nc4ncnc5nn6ccccc6c45)cc3[nH]2)cc1` it was 1 to 10 µM.
`Clc1cc(Nc2ncnc3nn4ccccc4c23)ccc1OCc1ccccc1` gave an IC50 below 0.1 µM.
For the molecule `O=C(Nc1cccc(C(F)(F)F)c1)Nc1ncnc2nn3ccccc3c12`, the IC50 was above 10 µM.
The same measure for `N#Cc1cccc(NC(=O)Nc2ncnc3nn4ccccc4c23)c1`: above 10 µM; for `O=C(Nc1cccc([N+](=O)[O-])c1)Nc1ncnc2nn3ccccc3c12`: above 10 µM.
As to `O=C(Nc1ccc(F)cc1)Nc1ncnc2nn3ccccc3c12`, the half-maximal inhibitory concentration (IC50) is above 10 µM.
Turning to `Nc1ncnc2nn3ccccc3c12`, the IC50 was above 10 µM.
With `c1ccc2c(CNNc3ncnc4nn5ccccc5c34)c[nH]c2c1`, the 50% inhibitory concentration (IC50) lay within 1 to 10 µM.

These data come from the Kinase Knowledgebase extract (Sharma et al. 2016).
